ChEMBL document CHEMBL2202962, “The discovery of a novel series of glucokinase activators based on a pyrazolopyrimidine scaffold” (Bioorg Med Chem Lett, 2012)
Converted amounts (≈) assume the structure as drawn.

Assays:
Liver microsomes = experiment: Drug metabolism in human liver microsomes assessed as glutathione adduct formation relative to clozapine; type: ADME, Microsome
[1] = Octanol-water partition coefficient, log D of the compound by HPLC analysis
Hexokinase-4 = molecular target: T1, Hexokinase-4 (Homo sapiens, UniProt P35557); experiment: Activation of human glucokinase
T1 sequence (P35557 whole entry): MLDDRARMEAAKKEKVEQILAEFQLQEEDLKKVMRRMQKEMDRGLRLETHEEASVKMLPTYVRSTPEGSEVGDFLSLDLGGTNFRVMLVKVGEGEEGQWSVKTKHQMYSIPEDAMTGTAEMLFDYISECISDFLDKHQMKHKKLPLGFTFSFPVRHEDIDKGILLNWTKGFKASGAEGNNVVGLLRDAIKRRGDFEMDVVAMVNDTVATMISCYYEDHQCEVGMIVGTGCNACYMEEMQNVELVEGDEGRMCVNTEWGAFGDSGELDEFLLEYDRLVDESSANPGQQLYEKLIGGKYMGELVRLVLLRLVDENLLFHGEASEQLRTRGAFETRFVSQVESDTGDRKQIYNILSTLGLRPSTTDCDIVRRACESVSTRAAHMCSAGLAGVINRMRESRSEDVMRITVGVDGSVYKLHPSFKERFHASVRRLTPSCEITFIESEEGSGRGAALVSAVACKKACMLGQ

Hepatocyte = experiment: Intrinsic clearance in rat hepatocytes assessed per 10^6 cells; type: ADME, cell-based
[2] = Volume of distribution at steady state in rat; type: ADME, organism-based; details: in vivo, read-out: Vdss
[3] = Oral bioavailability in rat; type: ADME, organism-based; details: in vivo
[4] = Clearance in rat; type: ADME, organism-based; details: in vivo
[5] = Solubility of the compound
[6] = molecular target: Voltage-gated inwardly rectifying potassium channel KCNH2 (Homo sapiens, UniProt Q12809)
Chain of Voltage-gated inwardly rectifying potassium channel KCNH2 (Q12809 whole entry): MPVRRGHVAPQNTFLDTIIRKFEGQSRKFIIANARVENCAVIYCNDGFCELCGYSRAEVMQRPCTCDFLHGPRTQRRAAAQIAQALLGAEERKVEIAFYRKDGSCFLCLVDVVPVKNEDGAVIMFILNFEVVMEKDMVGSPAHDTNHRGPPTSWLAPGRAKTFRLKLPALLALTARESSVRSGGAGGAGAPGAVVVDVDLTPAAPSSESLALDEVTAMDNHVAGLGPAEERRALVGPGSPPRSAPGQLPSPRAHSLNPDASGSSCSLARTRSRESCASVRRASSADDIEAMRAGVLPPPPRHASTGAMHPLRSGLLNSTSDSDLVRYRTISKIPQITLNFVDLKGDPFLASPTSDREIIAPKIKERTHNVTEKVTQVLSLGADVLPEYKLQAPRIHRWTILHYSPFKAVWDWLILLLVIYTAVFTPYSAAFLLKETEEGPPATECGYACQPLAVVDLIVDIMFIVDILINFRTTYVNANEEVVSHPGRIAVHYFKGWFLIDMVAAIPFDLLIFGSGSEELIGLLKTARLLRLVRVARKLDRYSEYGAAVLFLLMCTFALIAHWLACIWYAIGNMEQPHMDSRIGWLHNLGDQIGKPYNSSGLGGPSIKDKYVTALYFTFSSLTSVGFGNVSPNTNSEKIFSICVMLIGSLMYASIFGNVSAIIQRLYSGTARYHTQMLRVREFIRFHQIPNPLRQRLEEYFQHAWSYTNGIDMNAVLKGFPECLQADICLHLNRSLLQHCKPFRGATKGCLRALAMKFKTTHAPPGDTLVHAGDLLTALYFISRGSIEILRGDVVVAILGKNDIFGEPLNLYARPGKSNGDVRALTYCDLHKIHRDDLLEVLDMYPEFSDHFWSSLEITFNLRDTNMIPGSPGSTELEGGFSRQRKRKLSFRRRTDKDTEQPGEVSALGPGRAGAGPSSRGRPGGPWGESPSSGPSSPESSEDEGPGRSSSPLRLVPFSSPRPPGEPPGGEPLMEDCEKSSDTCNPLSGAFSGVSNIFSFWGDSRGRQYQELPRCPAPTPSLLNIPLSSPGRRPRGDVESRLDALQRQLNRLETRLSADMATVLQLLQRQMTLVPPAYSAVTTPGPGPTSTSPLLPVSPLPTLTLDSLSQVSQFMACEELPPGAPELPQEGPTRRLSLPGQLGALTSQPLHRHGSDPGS

| fold change (FC) (Liver microsomes) | logD [1] | EC50 (Hexokinase-4) [nM] | SMILES | other results |
| --- | --- | --- | --- | --- |
| 5 | 2.5 | 15800 | Cn1ccc(NC(=O)CSc2ncnc3c2cnn3-c2ccccc2Cl)n1 |  |
| 5 | 4.3 | > 100000 | O=C(CSc1ncnc2c1cnn2-c1ccccc1Cl)Nc1ccccc1 |  |
| 5 | 4.8 | 794 | COCCC(Sc1ncnc2c1cnn2-c1ccccc1Cl)C(=O)Nc1nc(C)cs1 (racemic) |  |
|  |  |  | COCC[C@H](Oc1ncnc2c1cnn2-c1ccccc1C(F)(F)F)C(=O)Nc1ccc(C)cn1 | CLint (Hepatocyte): 27 µL/min/1e6 cells |
|  | 3.9 | 50.1 | COCC[C@H](Oc1ncnc2c1cnn2-c1ccccc1Cl)C(=O)Nc1ccc(C)cn1 | Vd [2]: 3.2 L/kg; bioavailability [3]: 53%; CLint (Hepatocyte): 35 µL/min/1e6 cells; clearance [4]: 34 mL/min/kg; solubility [5]: 95 µM (≈ 43 µg/mL); IC50 [6]: 22000 nM |
| 5 | 6.4 | 631 | CCCCC(Sc1ncnc2c1cnn2-c1ccccc1Cl)C(=O)Nc1nc(C)cs1 (racemic) |  |
| 5 | 4.7 | 3160 | COCCOCCC(Sc1ncnc2c1cnn2-c1ccccc1Cl)C(=O)Nc1nc(C)cs1 (racemic) |  |
|  | 3.5 | 126 | COCC[C@H](Oc1ncnc2c1cnn2-c1ccccc1OC)C(=O)Nc1ccc(C)cn1 | CLint (Hepatocyte): 132 µL/min/1e6 cells; solubility [5]: 86 µM (≈ 38.6 µg/mL); IC50 [6]: > 33000 nM |
|  | 3.2 | 1580 | Cc1csc(NC(=O)COc2ncnc3c2cnn3-c2ccccc2Cl)n1 |  |
|  | 4.2 | 316 | COCCC(Oc1ncnc2c1cnn2-c1ccccc1C)C(=O)Nc1ccc(C)cn1 (racemic) |  |
| 5 | 5.6 | > 100000 | Cc1csc(NC(=O)C(Sc2ncnc3c2cnn3-c2ccccc2Cl)c2ccccc2)n1 (racemic) |  |
| 5 | 2.2 | > 100000 | O=C(CSc1ncnc2c1cnn2-c1ccccc1Cl)Nc1ncccn1 |  |
|  | 3.5 | 200 | COCCC(Oc1ncnc2c1cnn2-c1ccccc1OC)C(=O)Nc1ccc(C)cn1 (racemic) |  |
| 5 | 3.8 | 2510 | Cc1csc(NC(=O)CSc2ncnc3c2cnn3-c2ccccc2Cl)n1 |  |
|  | 5.7 | 126 | CCCCC(Oc1ncnc2c1cnn2-c1ccccc1Cl)C(=O)Nc1nc(C)cs1 (racemic) |  |
| 5 | 4.2 | 501 | Cc1ccc(NC(=O)CSc2ncnc3c2cnn3-c2ccccc2Cl)nc1 |  |
|  | 4.1 | 100 | COCCC(Oc1ncnc2c1cnn2-c1ccccc1Cl)C(=O)Nc1ccc(C)cn1 (racemic) |  |
|  |  | > 100000 | Cc1csc(NC(=O)CSc2ncnc3c2cnn3-c2ccccc2)n1 |  |
